Data as given in patent US8871210B2, “Chemokine receptor antagonists and use thereof” (Ono Pharmaceutical Co., Ltd., priority 2005, dated 2014).

Molecular target: T1, CXCR4 (Homo sapiens, UniProt P61073)
T1 construct: a human T cell strain in which CXCR4 is known to be expressed; endogenous in cells; host or cells: CEM cells (human T cell strain)
Experiment: Inhibition of binding of human 125I-SDF-1 to CEM cells
Settings: 125I-SDF-1, human T cell strain CEM cells, 4° C., 60 minutes
Text: Specifically, as a system of screening a compound that inhibits the binding between SDF-1 and CXCR4, for example a system of measuring the binding between iodine-labeled SDF-1 and a human T cell strain in which CXCR4 is known to be expressed is operable. The identical idea is possible since macrophage (R5) HIV and RANTES, MIP-1α, and MIP-1β all bind to CCR5.
Study for Inhibition of Binding Human SDF-1 to CEM Cells
To human T cell strain CEM cells in a binding buffer (containing HEPES and BSA), the test compound and ^125I-SDF-1 (NEN) were added and the mixture was incubated at 4° C. for 60 minutes. The reacted CEM cells were rapidly filtrated with a GF/B membrane filter plate (Packard) to adsorb. The plate was washed with PBS three times and then dried. Microscint+20 (Packard) was added thereto. An amount of the radioactivity bound to the CEM cells was measured using Top Count (Packard) and inhibition (%) of the test compound was calculated according to the following equation: Inhibition={(Et−Ea)/(Et−Ec)}×100
Et: amount of radioactivity when the test compound is not added,
Ec: amount of radioactivity when non-radioactive SDF-1 (Pepro Tech) is added in an amount of 1000 times as much as ^125I-SDF-1 as a test compound, and
Ea: amount of radioactivity when the test compound is added.

T1 sequence (P61073 whole entry): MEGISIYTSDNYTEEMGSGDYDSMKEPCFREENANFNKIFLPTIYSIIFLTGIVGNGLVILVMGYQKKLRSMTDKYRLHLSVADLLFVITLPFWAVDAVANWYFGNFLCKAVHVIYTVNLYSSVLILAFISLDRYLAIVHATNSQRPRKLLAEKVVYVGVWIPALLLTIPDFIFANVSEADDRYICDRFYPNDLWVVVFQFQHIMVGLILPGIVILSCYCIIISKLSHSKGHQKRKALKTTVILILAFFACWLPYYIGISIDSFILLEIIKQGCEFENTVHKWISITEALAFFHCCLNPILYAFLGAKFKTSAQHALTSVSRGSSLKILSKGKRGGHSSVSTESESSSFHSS

- IC50: 11 nM
SMILES: Cc1ccsc1CN1CCC2(CC1)CCN(Cc1ccc(C(=O)C(Cc3ncc[nH]3)Cc3ncc[nH]3)cc1)C2 [compound 14, 3-(1H-imidazol-2-yl)-2-(1H-imidazol-2-ylmethyl)-1-[4-({8-[(3-methyl-2-thienyl)methyl]-2,8-diazaspiro[4.5]dec-2-yl}methyl)phenyl]propan-1-one]
